Experimental data published in patent US20250325505A1, “COMPOSITION COMPRISING CREATINE FOR USE IN THE TREATMENT OF BREATHING DIFFICULTIES” (Alzchem Trostberg GmbH, priority 2022, published 2025).
Read-outs that look alike come from different tables or passages of the source.

What was measured:
Post-COVID patients [1] = test: Multidimensional fatigue inventory test (MFI-20), Example 1; assay type: in vivo, human; settings: 4 g creatine monohydrate per day
Procedure: (§1) The patient-reported outcomes for COVID-19-related signs and symptoms (e.g., breathing difficulties, lung pain, body aches,) were evaluated with VAS scale Table 3). Fatigue, comprising the conditions of the group general fatigue, physical fatigue, metal fatigue, reduced activity, and reduced motivation, was evaluated with a multidimensional fatigue inventory test (MFI-20 test, Smets E. M. et al., J. Psychosom. Res. 1995, 39(3), 315).
Thus, the higher the score, the higher the respective symptom is experienced by the interviewed patient. As a consequence, the lower the value given, the better is the effect in mitigation of the respective symptom.

Post-COVID patients [2] = test: Patient-reported COVID-19-related symptoms, VAS scale, Example 1; assay type: in vivo, human; settings: for Body Aches (VAS scale) / Breathing difficulties (VAS scale) / Lung pain (VAS scale): 4 g creatine monohydrate per day
Procedure: as §1

Post-COVID patients [3] = test: Side effects, Example 1; assay type: in vivo, human; settings: 4 g creatine monohydrate per day
Procedure: The number of participants who were randomly assigned, received intended treatment, and were analyzed for the primary outcome at this time was twelve in total, six in experimental group and six in control group.

Post-COVID patients [4] = test: Multidimensional fatigue inventory test (MFI-20), Example 2; assay type: in vivo, human; settings: 4 g creatine monohydrate per day plus breathing exercise
Procedure: as §1

Post-COVID patients [5] = test: Patient-reported symptoms, VAS scale, Example 2; assay type: in vivo, human; settings: for Breathing difficulties (VAS scale) / Lung malaise (VAS scale) / Lung pain (VAS scale): 4 g creatine monohydrate per day plus breathing exercise
Procedure: as §1

Post-COVID patients [6] = test: Side effects, Example 2; assay type: in vivo, human; settings: 4 g creatine monohydrate per day plus breathing exercise, 3-month
Excerpt: The changes in study outcomes during the trial are depicted in Table 5 and 6.

Post-COVID patients [7] = test: Time to exhaustion, incremental treadmill test, creatine vs placebo; assay type: in vivo, human; settings: creatine vs placebo study; for Time to exhaustion: treadmill
Procedure: (§2) The time to exhaustion of the patients was evaluated by an incremental test until exhaustion on a motorized treadmill. Speed and gradient of the treadmill are increased every third minute, starting at 2.7 km/h (1.7 miles per hour) at a 10% gradient and rising at stage 7 to 9.7 km/h (6 miles per hour) at 22% gradient (Will P. M. and Walter J. D., Am Heart. J., 1999 December, 138, 1033).

Post-COVID patients [8] = test: Time to exhaustion, incremental treadmill test, creatine plus breathing exercise; assay type: in vivo, human; settings: for Time to exhaustion: treadmill
Procedure: as §2

PCFS patients [9] = test: Fatigue scores, Example 4; assay type: in vivo, human; parameters: key to General fatigue score / Physical fatigue score / Mental fatigue score / Reduced activity score / Reduced motivation score: MFI-20 multidimensional fatigue inventory subscale scores; settings: for General fatigue score / Mental fatigue score / Physical fatigue score / Reduced activity score / Reduced motivation score: creatine 8 g per day or glucose 3 g per day
Procedure: as §1, with “315). […]” for “315).”

PCFS patients [10] = test: Patient-reported symptoms, VAS scale, Example 4; assay type: in vivo, human; settings: for Body Aches (VAS scale) / Breathing difficulties (VAS scale) / Lung pain (VAS scale): creatine 8 g per day or glucose 3 g per day
Procedure: The patient-reported outcomes for COVID-19-related signs and symptoms (e.g., breathing difficulties, lung pain, body aches and post viral fatigue) were evaluated with VAS scale (Tables 10 and 11).
The Cohen's effect sizes (d) in the creatine group for all outcomes evaluated and reproduced in Table 12 and FIG. 2. The effects are classified as small (d=0.2), medium (d=0.5, dashed line), and large (d≥0.8). Missing values are due to a statistical limitation in calculating effect sizes when pre and/or post values equal zero. Abbreviations: GF, general fatigue; PF, physical fatigue; RM, reduced motivation; RA, reduced activity; MF, mental fatigue; BOA, body aches; BRD, breathing difficulties; LUP, lung pain; and MAL, malaise.

[11] = human, in vivo
[12] = both, human, in vivo, 3 months
[13] = normal healthy population after creatine supplementation; cited from earlier work
[14] = creatine group, 8 g per day, 8 weeks

Compound: CN(CC(=O)O)C(=N)N.O [Creatine, creatine monohydrate]
- General fatigue score (Post-COVID patients [1]; 3 months): 11.3
- Mental fatigue score (Post-COVID patients [1]; 3 months): 11.2
- Physical fatigue score (Post-COVID patients [1]; 3 months): 12.7
- Reduced activity score (Post-COVID patients [1]; 3 months): 12.0
- Reduced motivation score (Post-COVID patients [1]; 3 months): 13.0
- General fatigue score (Post-COVID patients [1]; 6 months): 12.7
- Mental fatigue score (Post-COVID patients [1]; 6 months): 10.5
- Physical fatigue score (Post-COVID patients [1]; 6 months): 13.2
- Reduced activity score (Post-COVID patients [1]; 6 months): 12.5
- Reduced motivation score (Post-COVID patients [1]; 6 months): 12.5
- General fatigue score (Post-COVID patients [1]; Baseline): 12.0
- Mental fatigue score (Post-COVID patients [1]; Baseline): 12.3
- Physical fatigue score (Post-COVID patients [1]; Baseline): 13.5
- Reduced activity score (Post-COVID patients [1]; Baseline): 11.5
- Reduced motivation score (Post-COVID patients [1]; Baseline): 13.0
- Body Aches (VAS scale) (Post-COVID patients [2]; 3 months): 1.2
- Breathing difficulties (VAS scale) (Post-COVID patients [2]; 3 months): 0.5
- Lung pain (VAS scale) (Post-COVID patients [2]; 3 months): 0.5
- Body Aches (VAS scale) (Post-COVID patients [2]; 6-months): 0.0
- Breathing difficulties (VAS scale) (Post-COVID patients [2]; 6-months): 0.0
- Lung pain (VAS scale) (Post-COVID patients [2]; 6-months): 0.0
- Body Aches (VAS scale) (Post-COVID patients [2]; Baseline): 4.5
- Breathing difficulties (VAS scale) (Post-COVID patients [2]; Baseline): 2.3
- Lung pain (VAS scale) (Post-COVID patients [2]; Baseline): 2.3
- Body aches reduced (Post-COVID patients [2]; after 3 months): 73.3%
- Lung pain (Post-COVID patients [2]; after 3 months): reduced significantly
- breathing difficulties (dyspnea) reduced (Post-COVID patients [2]; after 3 months): 78%
- Cohen's effect size (d), body aches (Post-COVID patients [2]; at 3-month): 1.77
- Cohen's effect size (d), breathing difficulties (Post-COVID patients [2]; at 3-month): 0.89
- Cohen's effect size (d), body aches (Post-COVID patients [2]; at 6-month): 3.03
- Cohen's effect size (d), breathing difficulties (Post-COVID patients [2]; at 6-month): 1.25
- Cohen's effect size (d), lung pain (Post-COVID patients [2]; at 6-month): 0.99
- side effects (Post-COVID patients [3]): no major side effects
- General fatigue score (Post-COVID patients [4]; 3 months): 12.3
- Mental fatigue score (Post-COVID patients [4]; 3 months): 11.5
- Physical fatigue score (Post-COVID patients [4]; 3 months): 12.2
- Reduced activity score (Post-COVID patients [4]; 3 months): 12.8
- Reduced motivation score (Post-COVID patients [4]; 3 months): 12.8
- General fatigue score (Post-COVID patients [4]; Baseline): 11.5
- Mental fatigue score (Post-COVID patients [4]; Baseline): 11.8
- Physical fatigue score (Post-COVID patients [4]; Baseline): 12.3
- Reduced activity score (Post-COVID patients [4]; Baseline): 12.5
- Reduced motivation score (Post-COVID patients [4]; Baseline): 13.5
- Cohen's effect size for lung malaise (Post-COVID patients [5]; 3-month follow up): 2.97
- Breathing difficulties (VAS scale) (Post-COVID patients [5]; 3 months): 0.0
- Lung malaise (VAS scale) (Post-COVID patients [5]; 3 months): 1.0
- Lung pain (VAS scale) (Post-COVID patients [5]; 3 months): 0.0
- Breathing difficulties (VAS scale) (Post-COVID patients [5]; Baseline): 1.5
- Lung malaise (VAS scale) (Post-COVID patients [5]; Baseline): 6.3
- Lung pain (VAS scale) (Post-COVID patients [5]; Baseline): 0.5
- lung malaise reduced (Post-COVID patients [5]; creatine plus breathing exercise, 3-month follow up): 84%
- side effects / tolerability (Post-COVID patients [6]): well-tolerated
- stage achieved in the treadmill test (Post-COVID patients [7]): 6
- time to exhaustion increased (Post-COVID patients [7]; matches 6-months vs baseline of Table 7): 7.3%
- Time to exhaustion (Post-COVID patients [7]; 3-months): 922 s
- Time to exhaustion (Post-COVID patients [7]; 6-months): 959 s
- Time to exhaustion (Post-COVID patients [7]; Baseline): 894 s
- Cohen's effect size for time to exhaustion (Post-COVID patients [8]; creatine monohydrate plus breathing exercise): 0.36
- stage reached in the treadmill test (Post-COVID patients [8]; creatine plus breathing exercise study): 6
- Time to exhaustion (Post-COVID patients [8]; creatine plus breathing exercise study, 3-months): 921 s
- Time to exhaustion (Post-COVID patients [8]; creatine plus breathing exercise study, Baseline): 867 s
- mean time to exhaustion improved (Post-COVID patients [8]; experimental group, post-administration (3 months)): 54 s
- General fatigue score (PCFS patients [9]; 8 weeks): 12.0
- Mental fatigue score (PCFS patients [9]; 8 weeks): 12.2
- Physical fatigue score (PCFS patients [9]; 8 weeks): 11.4
- Reduced activity score (PCFS patients [9]; 8 weeks): 12.0
- Reduced motivation score (PCFS patients [9]; 8 weeks): 10.3
- General fatigue score (PCFS patients [9]; Baseline): 12.6
- Mental fatigue score (PCFS patients [9]; Baseline): 13.4
- Physical fatigue score (PCFS patients [9]; Baseline): 12.2
- Reduced activity score (PCFS patients [9]; Baseline): 13.6
- Reduced motivation score (PCFS patients [9]; Baseline): 11.6
- Cohen's effect (d), General Fatigue (PCFS patients [9]; [14]): 0.44
- Cohen's effect (d), Physical Fatigue (PF) (PCFS patients [9]; [14]): 0.83
- Cohen's effect size (d) for reducing body aches (PCFS patients [10]; 8-week follow-up): > 0.80
- Cohen's effect size (d) for reducing breathing difficulties (PCFS patients [10]; 8-week follow-up): > 0.80
- Cohen's effect size (d) for reducing lung malaise (PCFS patients [10]; 8-week follow-up): > 0.80
- Body aches reduced (PCFS patients [10]; after 8 weeks): 71%
- Lung pain reduced (PCFS patients [10]; after 8 weeks): 67%
- breathing difficulties (dyspnea) reduced (PCFS patients [10]; after 8 weeks): 85%
- Body Aches (VAS scale) (PCFS patients [10]; 8 weeks): 0.8
- Breathing difficulties (VAS scale) (PCFS patients [10]; 8 weeks): 0.4
- Lung pain (VAS scale) (PCFS patients [10]; 8 weeks): 0.6
- Body Aches (VAS scale) (PCFS patients [10]; Baseline): 2.8
- Breathing difficulties (VAS scale) (PCFS patients [10]; Baseline): 2.6
- Lung pain (VAS scale) (PCFS patients [10]; Baseline): 1.8
- Cohen's effect (d), Body aches (BOA) (PCFS patients [10]; [14]): 1.11
- Cohen's effect (d), Lung pain (LUP) (PCFS patients [10]; [14]): 0.64
- Total creatine, Left paracentral grey matter [11]: 6.7 ± 0.6 mM
- Total creatine, Right paracentral grey matter [11]: 6.8 ± 0.4 mM
- Cohen's effect size (d), increased brain creatine level in left parietal white matter ([11]; 3 months): 0.92
- Cohen's effect size (d), increased brain creatine level in parietal white matter ([11]; 3 months): 1.99
- Cohen's effect size (d), increased brain creatine level in right frontal white matter ([11]; 3 months): 1.25
- Cohen's effect size (d), increased brain creatine level in right paracentral grey matter ([11]; 3 months): 0.88
- Cohen's effect size (d), increased brain creatine level in right parietal messial grey matter ([11]; 3 months): 1.17
- Cohen's effect size (d), increased brain creatine level in thalamus ([11]; 3 months): 0.82
- Total creatine, Left paracentral grey matter ([11]; 3 months): 7.3 ± 0.9 mM
- Total creatine, Right paracentral grey matter ([11]; 3 months): 7.2 ± 0.5 mM
- Cohen's effect size (d), increased brain creatine level in left parietal messial grey matter ([11]; 6 months): 0.84
- Cohen's effect size (d), increased brain creatine level in left parietal white matter ([11]; 6 months): 1.17
- Cohen's effect size (d), increased brain creatine level in parietal white matter ([11]; 6 months): 1.74
- Cohen's effect size (d), increased brain creatine level in right frontal white matter ([11]; 6 months): 1.32
- Cohen's effect size (d), increased brain creatine level in right parietal messial grey matter ([11]; 6 months): 1.06
- Total creatine, Left paracentral grey matter ([11]; 6 months): 7.1 ± 0.7 mM
- Total creatine, Right paracentral grey matter ([11]; 6 months): 7.0 ± 0.7 mM
- Cohen's effect size (d) for creatine increment, vastus medialis muscle [12]: 0.77
- increase of creatine in the brain [13]: ≤ 5%
